This experiment addresses T1, xanthine oxidase (XO) (Bos taurus, UniProt P80457).
T1 construct: gene XDH
The experiment in a line: biolayer interferometry, biotinylated XO on SA sensor (also activates the purified enzyme, EC50 […]). The experiment is classed as binding. (In general: BLI is a label-free optical method that tracks binding on a fibre tip over time.)

T1 sequence (P80457 2-1332): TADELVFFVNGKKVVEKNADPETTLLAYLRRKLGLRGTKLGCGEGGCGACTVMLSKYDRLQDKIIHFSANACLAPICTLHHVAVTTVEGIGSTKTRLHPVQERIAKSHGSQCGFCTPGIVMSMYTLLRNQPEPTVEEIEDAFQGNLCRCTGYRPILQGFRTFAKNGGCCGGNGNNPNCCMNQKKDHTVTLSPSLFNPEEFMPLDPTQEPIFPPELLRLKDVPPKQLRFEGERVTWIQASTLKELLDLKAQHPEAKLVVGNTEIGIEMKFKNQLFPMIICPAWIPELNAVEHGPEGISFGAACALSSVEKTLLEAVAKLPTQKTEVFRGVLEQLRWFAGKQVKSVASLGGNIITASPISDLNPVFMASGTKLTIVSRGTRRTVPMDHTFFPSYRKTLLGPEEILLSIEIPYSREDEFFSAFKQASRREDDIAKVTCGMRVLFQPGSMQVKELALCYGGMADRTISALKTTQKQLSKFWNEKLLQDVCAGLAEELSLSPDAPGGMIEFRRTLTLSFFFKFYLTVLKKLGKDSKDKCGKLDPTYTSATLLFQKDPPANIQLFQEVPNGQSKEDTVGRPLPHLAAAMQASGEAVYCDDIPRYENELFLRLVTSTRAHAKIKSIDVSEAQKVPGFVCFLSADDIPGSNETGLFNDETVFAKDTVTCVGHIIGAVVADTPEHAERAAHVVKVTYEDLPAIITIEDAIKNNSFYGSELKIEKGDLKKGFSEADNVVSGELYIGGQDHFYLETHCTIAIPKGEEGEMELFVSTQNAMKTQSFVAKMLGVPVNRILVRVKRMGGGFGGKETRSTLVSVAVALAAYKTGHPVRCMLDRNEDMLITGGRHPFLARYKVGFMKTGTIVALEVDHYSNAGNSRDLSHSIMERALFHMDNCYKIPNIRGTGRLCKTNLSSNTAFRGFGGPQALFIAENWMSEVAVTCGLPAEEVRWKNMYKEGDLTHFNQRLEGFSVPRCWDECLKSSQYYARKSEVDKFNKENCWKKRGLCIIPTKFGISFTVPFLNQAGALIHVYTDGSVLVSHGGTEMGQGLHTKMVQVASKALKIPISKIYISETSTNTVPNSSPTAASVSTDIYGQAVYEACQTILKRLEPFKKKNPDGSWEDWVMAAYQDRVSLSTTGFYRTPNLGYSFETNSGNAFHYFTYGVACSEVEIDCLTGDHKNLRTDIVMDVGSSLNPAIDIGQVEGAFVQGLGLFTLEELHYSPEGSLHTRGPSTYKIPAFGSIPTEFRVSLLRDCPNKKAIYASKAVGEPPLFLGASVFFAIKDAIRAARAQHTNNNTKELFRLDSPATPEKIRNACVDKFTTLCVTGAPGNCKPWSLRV

For `CC1=CC(=O)c2c(O)cccc2C1=O` [PLB, Plumbagin], the Kd (commonly the concentration at which binding is half-saturated) turned out to be 499 nM.
